For assay [1], the target named is PI3K (Homo sapiens, UniProt P42336). The assay can be described thus: Fluorescence polarization assay for PI3K.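 Further: PI3K kinase reaction on PIP2 with ATP, 30-60 min, product sensed by GST-GRP with red probe in fluorescence polarization (mP), controls without enzyme and at zero time.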 The settings on record: PI3Kα; read-out: PI3Kα IC50. The class given is biochemical.
For assay [2], the system named is prostate line LNCap. The assay can be described thus: In vitro cell culture growth assay (MTS), LNCap.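 Further: viable cell density read by absorbance at 490 nm, growth expressed as percent of vehicle-treated cells on the same plate.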 The class given is cell-based, human. The settings on record: Homo sapiens, LNCaP, 72 h, LNCap cells, three days after drug treatment.
In assay [3] the test system is breast line MDA468. Kind of assay: In vitro cell culture growth assay (MTS), MDA468. The class given is cell-based, human. The settings on record: Homo sapiens, 72 h, MDA468 cells, three days after drug treatment. An outline of the steps: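 Steps: plate cells; add inhibitors the next day; incubate 3 days; add MTS dye, which viable cells convert metabolically; measure absorbance at 490 nm; calculate percent of control growth relative to vehicle-treated cells in the same plate.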

Sequence of PI3K (P42336 whole entry): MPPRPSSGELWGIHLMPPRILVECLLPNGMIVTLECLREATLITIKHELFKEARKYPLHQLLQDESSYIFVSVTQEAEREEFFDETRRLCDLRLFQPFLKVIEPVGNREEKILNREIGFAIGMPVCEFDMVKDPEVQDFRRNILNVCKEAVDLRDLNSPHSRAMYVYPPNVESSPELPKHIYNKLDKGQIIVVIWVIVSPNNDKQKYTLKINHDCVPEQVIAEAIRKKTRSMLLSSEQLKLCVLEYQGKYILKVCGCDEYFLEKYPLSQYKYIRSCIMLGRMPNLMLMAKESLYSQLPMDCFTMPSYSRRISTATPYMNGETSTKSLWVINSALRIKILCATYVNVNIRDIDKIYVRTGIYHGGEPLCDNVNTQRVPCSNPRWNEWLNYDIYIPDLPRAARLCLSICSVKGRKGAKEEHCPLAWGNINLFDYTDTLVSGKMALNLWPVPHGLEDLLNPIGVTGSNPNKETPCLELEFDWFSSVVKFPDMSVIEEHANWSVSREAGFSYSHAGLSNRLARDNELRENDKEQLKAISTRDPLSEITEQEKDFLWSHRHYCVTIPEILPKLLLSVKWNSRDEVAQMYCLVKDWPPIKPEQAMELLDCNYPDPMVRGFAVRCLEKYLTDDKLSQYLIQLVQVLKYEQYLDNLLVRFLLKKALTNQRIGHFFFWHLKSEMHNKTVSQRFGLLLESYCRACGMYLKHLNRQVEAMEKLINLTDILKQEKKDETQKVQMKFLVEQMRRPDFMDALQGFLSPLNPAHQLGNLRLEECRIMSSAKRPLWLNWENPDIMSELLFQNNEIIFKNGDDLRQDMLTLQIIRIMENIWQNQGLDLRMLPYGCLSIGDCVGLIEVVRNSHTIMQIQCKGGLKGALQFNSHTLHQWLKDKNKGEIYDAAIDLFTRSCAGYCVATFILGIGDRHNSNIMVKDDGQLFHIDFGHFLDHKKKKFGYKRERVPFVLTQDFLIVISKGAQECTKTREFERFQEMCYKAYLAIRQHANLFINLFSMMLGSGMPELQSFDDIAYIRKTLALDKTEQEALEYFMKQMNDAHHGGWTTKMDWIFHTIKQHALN
Sequence of PI3K (P27986 whole entry partner): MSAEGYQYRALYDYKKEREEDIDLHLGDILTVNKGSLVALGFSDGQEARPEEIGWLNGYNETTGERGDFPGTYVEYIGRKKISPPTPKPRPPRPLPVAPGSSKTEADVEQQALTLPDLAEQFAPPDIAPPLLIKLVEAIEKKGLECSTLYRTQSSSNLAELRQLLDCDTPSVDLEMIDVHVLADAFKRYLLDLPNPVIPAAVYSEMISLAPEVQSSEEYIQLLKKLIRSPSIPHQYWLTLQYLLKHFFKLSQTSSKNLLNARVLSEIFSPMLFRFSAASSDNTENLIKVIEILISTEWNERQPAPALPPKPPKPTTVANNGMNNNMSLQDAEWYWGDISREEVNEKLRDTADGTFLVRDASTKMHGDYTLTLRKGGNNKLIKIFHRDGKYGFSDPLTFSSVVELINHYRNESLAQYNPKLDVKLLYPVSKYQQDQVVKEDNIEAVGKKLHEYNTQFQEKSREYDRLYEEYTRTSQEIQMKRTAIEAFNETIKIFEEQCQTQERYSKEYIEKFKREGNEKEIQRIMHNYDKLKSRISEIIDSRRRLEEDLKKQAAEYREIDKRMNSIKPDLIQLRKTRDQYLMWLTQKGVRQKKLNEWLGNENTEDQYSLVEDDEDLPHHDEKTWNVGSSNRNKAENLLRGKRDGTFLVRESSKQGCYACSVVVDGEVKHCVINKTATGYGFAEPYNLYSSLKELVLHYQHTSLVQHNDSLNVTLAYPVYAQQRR

For orientation: IC50 means the concentration needed to halve the response being measured. In the case of `NS(=O)(=O)c1cccc(-c2nc(N3CCOCC3)c3cnn(C4CCN(Cc5ccccc5)CC4)c3n2)c1` [Compound 83], the IC50 was determined as 2.41 µM in assay [1], 4 µM in assay [2] and 7 µM in assay [3].

As to `CS(=O)(=O)Nc1cccc(-c2nc(N3CCOCC3)c3cnn(C4CCN(Cc5ccccc5)CC4)c3n2)c1` [Compound 84], the IC50 was found to be 4.2 µM in assay [1], 12 µM in assay [2] and 12 µM in assay [3].

Consider `NS(=O)(=O)c1ccc(-c2nc(N3CCOCC3)c3cnn(C4CCN(Cc5ccccc5)CC4)c3n2)cc1` [Compound 85], for which the IC50 in assay [1] amounted to 2.28 µM; in assay [2] it was 8 µM; in assay [3], 9 µM.

With `CNS(=O)(=O)c1ccc(-c2nc(N3CCOCC3)c3cnn(C4CCN(Cc5ccccc5)CC4)c3n2)cc1` [Compound 86], the IC50 in assay [1] was 4.66 µM; in assay [2] it was 7.2 µM; in assay [3], 6.5 µM.

With `CN(C)S(=O)(=O)c1ccc(-c2nc(N3CCOCC3)c3cnn(C4CCN(Cc5ccccc5)CC4)c3n2)cc1` [Compound 87], the IC50 in assay [1] was 0.78 µM; in assay [2], 23 µM; in assay [3], 60 µM.

With `Fc1cc(F)cc(-c2nc(N3CCOCC3)c3cnn(C4CCN(Cc5ccccc5)CC4)c3n2)c1` [Compound 88], the figures for the IC50 in assay [1], in assay [2] and in assay [3] were 2.19 µM, 60 µM and 58 µM, respectively.

For the compound `Cn1ccc2cc(-c3nc(N4CCOCC4)c4cnn(C5CCN(Cc6ccccc6)CC5)c4n3)ccc21` [Compound 89], the IC50 in assay [1] worked out at 5.19 µM; in assay [2], 15 µM; in assay [3], 20 µM.

For the compound `O=S(=O)(c1ccccc1)N1CCC(n2ncc3c(N4CCOCC4)nc(-c4ccc5[nH]ccc5c4)nc32)CC1` [Compound 92], the IC50 stood at 4.65 µM in assay [1], 8 µM in assay [2] and 2.5 µM in assay [3].

On to `O=C(CCl)N1CCC(n2ncc3c(N4CCOCC4)nc(-c4ccc5[nH]ccc5c4)nc32)CC1` [Compound 93], for which the IC50 in assay [1] came out at 0.337 µM; in assay [2], 1.1 µM; in assay [3], 1.2 µM.

Regarding `CN(C)CC(=O)N1CCC(n2ncc3c(N4CCOCC4)nc(-c4ccc5[nH]ccc5c4)nc32)CC1` [Compound 94], the IC50 was determined as 1.46 µM in assay [1], 1.9 µM in assay [2] and 4.2 µM in assay [3].

`CN(C)C(=O)N1CCC(n2ncc3c(N4CCOCC4)nc(-c4ccc5[nH]ccc5c4)nc32)CC1` [Compound 95]: the IC50 in assay [1] turned out to be 2.46 µM; in assay [2] it was 0.7 µM; in assay [3], 2.1 µM.

With `CNCC(=O)N1CCC(n2ncc3c(N4CCOCC4)nc(-c4ccc5[nH]ccc5c4)nc32)CC1` [Compound 96], the results for the IC50 in assay [1], in assay [2] and in assay [3] were 0.449 µM, 1.3 µM and 2.8 µM, respectively.

Consider `CCn1ncc2c(N3CCOCC3)nc(-c3cccc(O)c3)nc21` [Compound 97], for which the IC50 was 0.018 µM in assay [1], 0.31 µM in assay [2] and 1.3 µM in assay [3].

`C1=C(c2nc(N3CCOCC3)c3cnn(-c4ccccc4)c3n2)CCOC1` [Compound 98]: the results for the IC50 in assay [1], in assay [2] and in assay [3] were 0.754 µM, 60 µM and 33 µM, respectively.

Regarding `CS(=O)(=O)Nc1ccc(-c2nc(N3CCOCC3)c3cnn(-c4ccccc4)c3n2)cc1` [Compound 99], the IC50 came out at 0.332 µM in assay [1], 3.5 µM in assay [2] and 5 µM in assay [3].

As for `NC(=O)c1ccc(-c2nc(N3CCOCC3)c3cnn(-c4ccccc4)c3n2)cc1` [Compound 100], the figures for the IC50 in assay [1], in assay [2] and in assay [3] were 0.359 µM, 60 µM and 60 µM, respectively.

For `CN(C)CCCNC(=O)c1ccc(-c2nc(N3CCOCC3)c3cnn(-c4ccccc4)c3n2)cc1` [Compound 102], the IC50 in assay [1] came out at 0.32 µM; in assay [2], 3.2 µM; in assay [3], 7.5 µM.

Take `CN(C)CCNC(=O)c1ccc(-c2nc(N3CCOCC3)c3cnn(-c4ccccc4)c3n2)cc1` [Compound 103]: the IC50 in assay [1] amounted to 0.58 µM; in assay [2] it was 3.9 µM; in assay [3] it was 5 µM.

On to `CN(C)CCNC(=O)c1cccc(-c2nc(N3CCOCC3)c3cnn(-c4ccccc4)c3n2)c1` [Compound 104], for which the IC50 was determined as 0.244 µM in assay [1], 3.7 µM in assay [2] and 3.3 µM in assay [3].

Regarding `c1ccc(-n2ncc3c(N4CCOCC4)nc(-c4ccc5sccc5c4)nc32)cc1` [Compound 105], the values for the IC50 in assay [1], in assay [2] and in assay [3] were 3.08 µM, 60 µM and 60 µM, respectively.

Regarding `O=C(O)CCC(=O)Nc1ccc(-c2nc(N3CCOCC3)c3cnn(-c4ccccc4)c3n2)cc1` [Compound 109], the figures for the IC50 in assay [1], in assay [2] and in assay [3] were 0.248 µM, 45 µM and 30 µM, respectively.

For the compound `c1ccc(-n2ncc3c(N4CCOCC4)nc(-c4cc5ccccc5[nH]4)nc32)cc1` [Compound 111, 6-(1H-indol-2-yl)-4-morpholin-4-yl-1-phenyl-1H-pyrazolo[3,4-d]pyrimidine], the results for the IC50 in assay [1], in assay [2] and in assay [3] were 1.01 µM, 12 µM and 23 µM, respectively.

Consider `c1ccc(-n2ncc3c(N4CCOCC4)nc(-c4cc5ccccc5o4)nc32)cc1` [Compound 112], for which the IC50 in assay [1] was determined as 1.91 µM; in assay [2], 15 µM; in assay [3] it was 60 µM.

For `c1ccc(-n2ncc3c(N4CCOCC4)nc(-c4cc5ccccc5s4)nc32)cc1` [Compound 113], the IC50 amounted to 2.17 µM in assay [1], 22 µM in assay [2] and 23 µM in assay [3].

`CN(C)c1ccc(-c2nc(N3CCOCC3)c3cnn(-c4ccccc4)c3n2)cc1` [Compound 114]: the IC50 in assay [1] stood at 0.393 µM; in assay [2], 15 µM; in assay [3], 27 µM.

On to `CC(=O)Nc1cccc(-c2nc(N3CCOCC3)c3cnn(-c4ccccc4)c3n2)c1` [Compound 115], for which the figures for the IC50 in assay [1], in assay [2] and in assay [3] were 0.357 µM, 5.2 µM and 9 µM, respectively.

In the case of `CS(=O)(=O)Nc1cccc(-c2nc(N3CCOCC3)c3cnn(-c4ccccc4)c3n2)c1` [Compound 116], the IC50 in assay [1] was 0.111 µM; in assay [2], 20 µM; in assay [3], 60 µM.

With `c1ccc(-n2ncc3c(N4CCOCC4)nc(-c4ccc5occc5c4)nc32)cc1` [Compound 117], the figures for the IC50 in assay [1], in assay [2] and in assay [3] were 0.699 µM, 60 µM and 60 µM, respectively.

On to `O=CNc1ccc(-c2nc(N3CCOCC3)c3cnn(-c4ccccc4)c3n2)cc1` [Compound 118], for which the IC50 was 0.122 µM in assay [1], 7 µM in assay [2] and 20 µM in assay [3].

With `O=[N+]([O-])c1ccc(-c2nc(N3CCOCC3)c3cnn(-c4ccccc4)c3n2)cc1` [Compound 119], the IC50 came out at 1.16 µM in assay [1], 60 µM in assay [2] and 60 µM in assay [3].

With `CN1CCN(C(=O)N2CCC(n3ncc4c(N5CCOCC5)nc(-c5ccc6[nH]ccc6c5)nc43)CC2)CC1` [Compound 120], the IC50 was determined as 0.737 µM in assay [1], 0.7 µM in assay [2] and 2 µM in assay [3].

As for `O=C(N1CCOCC1)N1CCC(n2ncc3c(N4CCOCC4)nc(-c4ccc5[nH]ccc5c4)nc32)CC1` [Compound 121], the IC50 is 2.13 µM in assay [1], 0.6 µM in assay [2] and 2 µM in assay [3].

On to `S=C(Nc1cccnc1)N1CCC(n2ncc3c(N4CCOCC4)nc(-c4ccc5[nH]ccc5c4)nc32)CC1` [Compound 122, 4-[6-(1H-indol-5-yl)-4-morpholin-4-yl-1H-pyrazolo[3,4-d]pyrimidin-1-yl]-N-pyridin-3-ylpiperidine-1-carbothioamide], for which the IC50 in assay [1] was 0.132 µM; in assay [2] it was 0.7 µM; in assay [3], 1.3 µM.

As for `O=C(N1CCCC1)N1CCC(n2ncc3c(N4CCOCC4)nc(-c4ccc5[nH]ccc5c4)nc32)CC1` [Compound 123], the IC50 in assay [1] came to 1.3 µM; in assay [2], 0.45 µM; in assay [3], 1.8 µM.

With `CN1CCC(n2ncc3c(N4CCOCC4)nc(-c4ccc5[nH]ccc5c4)nc32)CC1` [Compound 124], the IC50 stood at 0.843 µM in assay [1], 0.83 µM in assay [2] and 1.7 µM in assay [3].

As for `c1cc2cc(-c3nc(N4CCOCC4)c4cnn(CCN5CCCCC5)c4n3)ccc2[nH]1` [Compound 125], the IC50 in assay [1] came to 9.75 µM; in assay [2] it was 4.4 µM; in assay [3], 7.3 µM.

Regarding `Oc1cccc(-c2nc(N3CCOCC3)c3cnn(CCN4CCCCC4)c3n2)c1` [Compound 126], the IC50 in assay [1] was found to be 0.06 µM; in assay [2], 3.3 µM; in assay [3], 13 µM.

Turning to `CC(=O)Nc1ccc(-c2nc(N3CCOCC3)c3cnn(CCN4CCCCC4)c3n2)cc1` [Compound 127], the IC50 in assay [1] worked out at 6.52 µM; in assay [2], 5 µM; in assay [3], 18 µM.

Regarding `CNc1ccc(-c2nc(N3CCOCC3)c3cnn(-c4ccccc4)c3n2)cc1` [Compound 128], the IC50 in assay [1] came to 0.384 µM; in assay [2], 4.8 µM; in assay [3], 60 µM.

Take `c1ccc(-n2ncc3c(N4CCOCC4)nc(-c4ccc(CN5CCOCC5)cc4)nc32)cc1` [Compound 130]: the results for the IC50 in assay [1], in assay [2] and in assay [3] were 0.822 µM, 60 µM and 60 µM, respectively.

Regarding `c1ccc(-n2ncc3c(N4CCOCC4)nc(-c4ccc(N5CCOCC5)nc4)nc32)cc1` [Compound 131], the IC50 amounted to 1.1 µM in assay [1], 60 µM in assay [2] and 60 µM in assay [3].

Consider `O=C(Nc1cccnc1)N1CCC(n2ncc3c(N4CCOCC4)nc(-c4ccc5[nH]ccc5c4)nc32)CC1` [Compound 132], for which the IC50 came to 0.311 µM in assay [1], 0.3 µM in assay [2] and 1.2 µM in assay [3].

As to `O=C(CCN1CCCCC1)Nc1ccc(-c2nc(N3CCOCC3)c3cnn(-c4ccccc4)c3n2)cc1` [Compound 137], the results for the IC50 in assay [1], in assay [2] and in assay [3] were 0.1 µM, 2.8 µM and 1.2 µM, respectively.

For the origin of these results see patent US20080234262A1 (Wyeth, priority 2007, published 2008).
